Activity calls are given as the source filed them. The calls are words filed in the database; no cut-off is given here.
Tests used:
[1] = target: Poly [ADP-ribose] polymerase 1 (Homo sapiens, UniProt P09874); assay: Inhibition of PARP1 (unknown origin)
[2] = target: Nicotinamide phosphoribosyltransferase (Homo sapiens, UniProt P43490); assay: Inhibition of NAMPT (unknown origin)
MDA-MB-436 = assay: cells; conditions: Homo sapiens
MDA-MB-231 [3] = assay: cells; conditions: Homo sapiens
MDA-MB-231 [4] = assay: Induction of apoptosis in human MDA-MB-231 cells harboring wild-type BRCA assessed as viable cells at 10 uM incubated for 48 hrs by Annexin V-FITC/PI staining based flow cytometry analysis (reference value: 94.3%); type: functional; conditions: read-out: Activity
MDA-MB-231 [5] = assay: Induction of apoptosis in human MDA-MB-231 cells harboring wild-type BRCA assessed as early apoptotic cells at 10 uM incubated for 48 hrs by Annexin V-FITC/PI staining based flow cytometry analysis (reference value: 1.60%); type: functional
MDA-MB-231 [6] = assay: Induction of apoptosis in human MDA-MB-231 cells harboring wild-type BRCA assessed as late apoptotic cells at 10 uM incubated for 48 hrs by Annexin V-FITC/PI staining based flow cytometry analysis (reference value: 2.38%); type: functional
MDA-MB-231 [7] = assay: Induction of apoptosis in human MDA-MB-231 cells harboring wild-type BRCA assessed as necrotic cells at 10 uM incubated for 48 hrs by Annexin V-FITC/PI staining based flow cytometry analysis (reference value: 1.68%); type: functional
MDA-MB-231 [8] = assay: Induction of apoptosis in human MDA-MB-231 cells harboring wild-type BRCA assessed as viable cells at 10 uM incubated for 48 hrs in presence of GNE-617 by Annexin V-FITC/PI staining based flow cytometry analysis (reference value: 94.3%); type: functional; conditions: read-out: Activity
MDA-MB-231 [9] = assay: Induction of apoptosis in human MDA-MB-231 cells harboring wild-type BRCA assessed as early apoptotic cells at 10 uM incubated for 48 hrs in presence of GNE-617 by Annexin V-FITC/PI staining based flow cytometry analysis (reference value: 1.60%); type: functional
MDA-MB-231 [10] = assay: Induction of apoptosis in human MDA-MB-231 cells harboring wild-type BRCA assessed as late apoptotic cells at 10 uM incubated for 48 hrs in presence of GNE-617 by Annexin V-FITC/PI staining based flow cytometry analysis (reference value: 2.38%); type: functional
MDA-MB-231 [11] = assay: Induction of apoptosis in human MDA-MB-231 cells harboring wild-type BRCA assessed as necrotic cells at 10 uM incubated for 48 hrs in presence of GNE-617 by Annexin V-FITC/PI staining based flow cytometry analysis (reference value: 1.68%); type: functional
MDA-MB-231 [12] = assay: Induction of DNA damage in human MDA-MB-231 cells assessed as increase in gammaH2AX levels at 5 to 10 uM incubated for 48 hrs by DAPI staining based Immunofluorescence analysis; type: functional, cell-based; conditions: dose 5-10 µM
MDA-MB-231 [13] = assay: Induction of apoptosis in human MDA-MB-231 cells harboring wild-type BRCA assessed as viable cells at 5 uM incubated for 48 hrs by Annexin V-FITC/PI staining based flow cytometry analysis (reference value: 94.3%); type: functional; conditions: read-out: Activity
MDA-MB-231 [14] = assay: Induction of apoptosis in human MDA-MB-231 cells harboring wild-type BRCA assessed as early apoptotic cells at 5 uM incubated for 48 hrs by Annexin V-FITC/PI staining based flow cytometry analysis (reference value: 1.60%); type: functional
MDA-MB-231 [15] = assay: Induction of apoptosis in human MDA-MB-231 cells harboring wild-type BRCA assessed as late apoptotic cells at 5 uM incubated for 48 hrs by Annexin V-FITC/PI staining based flow cytometry analysis (reference value: 2.38%); type: functional
MDA-MB-231 [16] = assay: Induction of apoptosis in human MDA-MB-231 cells harboring wild-type BRCA assessed as necrotic cells at 5 uM incubated for 48 hrs by Annexin V-FITC/PI staining based flow cytometry analysis (reference value: 1.68%); type: functional
MDA-MB-231 [17] = assay: Downregulation of BRCA1 level in human MDA-MB-231 cells at 5 to 10 uM by Western blot analysis; type: functional, cell-based; conditions: dose 5-10 µM
MDA-MB-231 [18] = assay: Downregulation of Rad51 level in human MDA-MB-231 cells at 5 to 10 uM by Western blot analysis; type: functional, cell-based; conditions: dose 5-10 µM
MDA-MB-231 [19] = assay: Induction of apoptosis in human MDA-MB-231 cells harboring wild-type BRCA incubated for 48 hrs by Annexin V-FITC/PI staining based flow cytometry analysis; type: functional, cell-based; conditions: dose 5-10 µM
MDA-MB-231 [20] = assay: Antimigratory activity against human MDA-MB-231 cells at 10 uM incubated for 48 hrs by wound healing assay; type: functional, cell-based
MDA-MB-231 [21] = assay: Antimigratory activity against human MDA-MB-231 cells at 10 uM incubated for 48 hrs by Transwell migration assay; type: functional, cell-based
MDA-MB-231 [22] = assay: Synergistic anti-proliferative activity against human MDA-MB-231 cells harboring wild-type BRCA assessed as combination index at 10 to 40 uM in presence of olaparib; type: functional; conditions: dose 10-40 µM
MDA-MB-231 [23] = assay: Induction of apoptosis in human MDA-MB-231 cells harboring wild-type BRCA assessed as viable cells at 15 uM incubated for 48 hrs by Annexin V-FITC/PI staining based flow cytometry analysis (reference value: 94.3%); type: functional; conditions: read-out: Activity
MDA-MB-231 [24] = assay: Induction of apoptosis in human MDA-MB-231 cells harboring wild-type BRCA assessed as early apoptotic cells at 15 uM incubated for 48 hrs by Annexin V-FITC/PI staining based flow cytometry analysis (reference value: 1.60%); type: functional
MDA-MB-231 [25] = assay: Induction of apoptosis in human MDA-MB-231 cells harboring wild-type BRCA assessed as late apoptotic cells at 15 uM incubated for 48 hrs by Annexin V-FITC/PI staining based flow cytometry analysis (reference value: 2.38%); type: functional
MDA-MB-231 [26] = assay: Induction of apoptosis in human MDA-MB-231 cells harboring wild-type BRCA assessed as necrotic cells at 15 uM incubated for 48 hrs by Annexin V-FITC/PI staining based flow cytometry analysis (reference value: 1.68%); type: functional
MDA-MB-231 [27] = assay: Induction of apoptosis in human MDA-MB-231 cells harboring wild-type BRCA assessed as viable cells at 15 uM incubated for 48 hrs in presence of Olaparib by Annexin V-FITC/PI staining based flow cytometry analysis (reference value: 94.3%); type: functional; conditions: read-out: Activity
MDA-MB-231 [28] = assay: Induction of apoptosis in human MDA-MB-231 cells harboring wild-type BRCA assessed as early apoptotic cells at 15 uM incubated for 48 hrs in presence of Olaparib by Annexin V-FITC/PI staining based flow cytometry analysis (reference value: 1.60%); type: functional
MDA-MB-231 [29] = assay: Induction of apoptosis in human MDA-MB-231 cells harboring wild-type BRCA assessed as late apoptotic cells at 15 uM incubated for 48 hrs in presence of Olaparib by Annexin V-FITC/PI staining based flow cytometry analysis (reference value: 2.38%); type: functional
MDA-MB-231 [30] = assay: Induction of apoptosis in human MDA-MB-231 cells harboring wild-type BRCA assessed as necrotic cells at 15 uM incubated for 48 hrs in presence of Olaparib by Annexin V-FITC/PI staining based flow cytometry analysis (reference value: 1.68%); type: functional

Chain of Nicotinamide phosphoribosyltransferase (P43490 whole entry): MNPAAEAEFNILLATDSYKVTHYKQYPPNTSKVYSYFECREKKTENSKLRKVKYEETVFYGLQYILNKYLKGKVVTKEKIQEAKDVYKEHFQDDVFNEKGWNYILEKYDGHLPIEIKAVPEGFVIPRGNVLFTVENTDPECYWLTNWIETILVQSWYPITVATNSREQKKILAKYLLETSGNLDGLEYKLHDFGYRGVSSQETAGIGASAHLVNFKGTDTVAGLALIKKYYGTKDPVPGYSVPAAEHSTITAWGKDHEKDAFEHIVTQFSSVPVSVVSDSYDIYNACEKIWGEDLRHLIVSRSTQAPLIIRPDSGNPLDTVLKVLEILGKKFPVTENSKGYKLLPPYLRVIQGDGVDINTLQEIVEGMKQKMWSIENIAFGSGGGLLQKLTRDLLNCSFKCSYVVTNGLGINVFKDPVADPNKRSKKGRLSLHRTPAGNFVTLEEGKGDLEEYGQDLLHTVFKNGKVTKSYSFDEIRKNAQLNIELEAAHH
Chain of Poly [ADP-ribose] polymerase 1 (P09874 whole entry): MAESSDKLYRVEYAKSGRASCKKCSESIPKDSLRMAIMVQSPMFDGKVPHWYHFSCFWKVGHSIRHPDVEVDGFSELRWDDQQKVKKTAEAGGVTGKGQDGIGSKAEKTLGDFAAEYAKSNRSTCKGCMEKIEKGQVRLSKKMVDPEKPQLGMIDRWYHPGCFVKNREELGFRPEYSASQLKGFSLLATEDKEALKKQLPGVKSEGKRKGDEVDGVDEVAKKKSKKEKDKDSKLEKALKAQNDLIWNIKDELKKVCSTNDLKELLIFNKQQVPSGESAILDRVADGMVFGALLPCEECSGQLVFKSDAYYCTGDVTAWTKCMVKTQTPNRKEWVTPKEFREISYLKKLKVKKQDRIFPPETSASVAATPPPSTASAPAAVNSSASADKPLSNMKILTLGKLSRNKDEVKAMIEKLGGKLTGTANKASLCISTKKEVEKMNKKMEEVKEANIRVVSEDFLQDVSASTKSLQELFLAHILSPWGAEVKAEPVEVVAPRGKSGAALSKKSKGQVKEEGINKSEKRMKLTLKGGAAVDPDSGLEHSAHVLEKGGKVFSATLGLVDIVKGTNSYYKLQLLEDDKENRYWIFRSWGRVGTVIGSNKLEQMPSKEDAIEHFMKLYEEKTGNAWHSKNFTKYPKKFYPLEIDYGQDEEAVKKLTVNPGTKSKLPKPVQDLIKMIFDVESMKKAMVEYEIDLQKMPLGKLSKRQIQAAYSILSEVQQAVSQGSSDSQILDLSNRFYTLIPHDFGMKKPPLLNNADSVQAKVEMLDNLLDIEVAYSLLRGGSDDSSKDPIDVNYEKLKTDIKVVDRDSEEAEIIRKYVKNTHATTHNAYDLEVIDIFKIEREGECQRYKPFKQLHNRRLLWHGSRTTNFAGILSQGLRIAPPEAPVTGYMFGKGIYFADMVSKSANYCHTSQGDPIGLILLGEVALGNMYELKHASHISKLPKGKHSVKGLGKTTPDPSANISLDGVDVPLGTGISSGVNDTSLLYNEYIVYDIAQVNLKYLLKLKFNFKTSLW

Question: With `O=C(/C=C/c1cccnc1)NCCCCCCN1CCN(C(=O)c2cc(Cc3n[nH]c(=O)c4ccccc34)ccc2F)CC1` as the compound, how does the IC50 [1] read?
Answer: 1 nM

Question: And the IC50 [2]?
Answer: 349 nM

Question: `O=C(/C=C/c1cccnc1)NCCN1CCN(C(=O)c2cc(Cc3n[nH]c(=O)c4ccccc34)ccc2F)CC1` was tested. Which IC50 [2] did it give?
Answer: 93 nM

Question: How did the IC50 [1] turn out when `O=C(/C=C/c1cccnc1)NCCCCN1CCN(C(=O)c2cc(Cc3n[nH]c(=O)c4ccccc34)ccc2F)CC1` was run?
Answer: 0.9 nM

Question: And the IC50 [2]?
Answer: 10 nM

Question: And the IC50 (MDA-MB-436)?
Answer: 1440 nM

Question: And the IC50 (MDA-MB-231 [3])?
Answer: 4170 nM

Question: How did the viability at 10 µM (MDA-MB-231 [4]) turn out when `O=C(c1cc(Cc2n[nH]c(=O)c3ccccc23)ccc1F)N1CCN(C(=O)C2CC2)CC1` [OLAPARIB] was run?
Answer: 87.5%

Question: And the Activity (MDA-MB-231 [5])?
Answer: 12.4%

Question: And the Activity (MDA-MB-231 [6])?
Answer: 0.041%

Question: And the Activity (MDA-MB-231 [7])?
Answer: 0.006%

Question: What about the viability at 10 µM (MDA-MB-231 [8]) of the same compound?
Answer: 64%

Question: And the Activity (MDA-MB-231 [9])?
Answer: 34.6%

Question: And the Activity (MDA-MB-231 [10])?
Answer: 1.38%

Question: And the Activity (MDA-MB-231 [11])?
Answer: 0.023%

Question: And the IC50 (MDA-MB-436)?
Answer: 1180 nM

Question: And the IC50 (MDA-MB-231 [3])?
Answer: 29800 nM

Question: For `O=C(/C=C/c1cccnc1)NCCCCCN1CCN(C(=O)c2cc(Cc3n[nH]c(=O)c4ccccc34)ccc2F)CC1`, which IC50 [1] is on record?
Answer: 1.6 nM

Question: And the IC50 [2]?
Answer: 14 nM

Question: What about the IC50 (MDA-MB-436) of the same compound?
Answer: 1120 nM

Question: What about the IC50 (MDA-MB-231 [3]) of the same compound?
Answer: 2540 nM

Question: For `O=C(NCCCCCCN1CCN(C(=O)c2cc(Cc3n[nH]c(=O)c4ccccc34)ccc2F)CC1)c1ccc2nccn2c1`, which Activity (MDA-MB-231 [12]) is on record?
Answer: Active

Question: And the IC50 [1]?
Answer: 0.8 nM

Question: What about the IC50 [2] of the same compound?
Answer: 18 nM

Question: And the viability at 10 µM (MDA-MB-231 [4])?
Answer: 49.3%

Question: And the Activity (MDA-MB-231 [5])?
Answer: 44.2%

Question: And the Activity (MDA-MB-231 [6])?
Answer: 6.09%

Question: And the Activity (MDA-MB-231 [7])?
Answer: 0.41%

Question: What about the viability at 5 µM (MDA-MB-231 [13]) of the same compound?
Answer: 68.3%

Question: What about the Activity (MDA-MB-231 [14]) of the same compound?
Answer: 29.8%

Question: And the Activity (MDA-MB-231 [15])?
Answer: 1.84%

Question: And the Activity (MDA-MB-231 [16])?
Answer: 0.031%

Question: And the Activity (MDA-MB-231 [17])?
Answer: Active

Question: What about the Activity (MDA-MB-231 [18]) of the same compound?
Answer: Active

Question: What about the Activity (MDA-MB-231 [19]) of the same compound?
Answer: Dose-dependent-effect

Question: What about the Activity (MDA-MB-231 [20]) of the same compound?
Answer: Active

Question: And the Activity (MDA-MB-231 [21])?
Answer: Active

Question: And the IC50 (MDA-MB-436)?
Answer: 960 nM

Question: And the IC50 (MDA-MB-231 [3])?
Answer: 700 nM

Question: `O=C(NCc1ccc(S(=O)(=O)c2cc(F)cc(F)c2)cc1)c1ccc2nccn2c1` was tested. Which CI (MDA-MB-231 [22]) did it give?
Answer: <1

Question: And the viability at 15 µM (MDA-MB-231 [23])?
Answer: 82.7%

Question: What about the Activity (MDA-MB-231 [24]) of the same compound?
Answer: 17%

Question: What about the Activity (MDA-MB-231 [25]) of the same compound?
Answer: 0.19%

Question: What about the Activity (MDA-MB-231 [26]) of the same compound?
Answer: 0.023%

Question: What about the viability at 15 µM (MDA-MB-231 [27]) of the same compound?
Answer: 64%

Question: What about the Activity (MDA-MB-231 [28]) of the same compound?
Answer: 34.6%

Question: What about the Activity (MDA-MB-231 [29]) of the same compound?
Answer: 1.38%

Question: What about the Activity (MDA-MB-231 [30]) of the same compound?
Answer: 0.023%

Question: What about the IC50 (MDA-MB-436) of the same compound?
Answer: 34200 nM

Question: And the IC50 (MDA-MB-231 [3])?
Answer: 50900 nM

Question: Which IC50 [1] does the source give for `O=C(NCCCCCN1CCN(C(=O)c2cc(Cc3n[nH]c(=O)c4ccccc34)ccc2F)CC1)c1ccc2nccn2c1` here?
Answer: 1.8 nM

Question: Which IC50 [1] does the source give for `O=C(NCCCCN1CCN(C(=O)c2cc(Cc3n[nH]c(=O)c4ccccc34)ccc2F)CC1)c1ccc2nccn2c1` here?
Answer: 1 nM

Question: What about the IC50 [2] of the same compound?
Answer: 72 nM

Question: How did the IC50 [1] turn out when `O=C(/C=C/c1cccnc1)NCCCN1CCN(C(=O)c2cc(Cc3n[nH]c(=O)c4ccccc34)ccc2F)CC1` was run?
Answer: 0.6 nM

Question: What about the IC50 [2] of the same compound?
Answer: 68 nM
